According to PMC7237442, “Drosophila taste neurons as an agonist-screening platform for P2X receptors” (Scientific Reports, 2020):
Where a chain is given by its changes, count along the chain named.

Assays:
rat P2X2 [1] = target: T1, rat P2X2 (Rattus norvegicus, UniProt P49653); assay: action potential recording from Drosophila taste neurons expressing the receptor; also whole-cell voltage clamp in HEK […] cells
T1 construct: gene P2rx2; rat P2X2 with C-terminal mCherry fusion
T1 sequence (P49653 1-472): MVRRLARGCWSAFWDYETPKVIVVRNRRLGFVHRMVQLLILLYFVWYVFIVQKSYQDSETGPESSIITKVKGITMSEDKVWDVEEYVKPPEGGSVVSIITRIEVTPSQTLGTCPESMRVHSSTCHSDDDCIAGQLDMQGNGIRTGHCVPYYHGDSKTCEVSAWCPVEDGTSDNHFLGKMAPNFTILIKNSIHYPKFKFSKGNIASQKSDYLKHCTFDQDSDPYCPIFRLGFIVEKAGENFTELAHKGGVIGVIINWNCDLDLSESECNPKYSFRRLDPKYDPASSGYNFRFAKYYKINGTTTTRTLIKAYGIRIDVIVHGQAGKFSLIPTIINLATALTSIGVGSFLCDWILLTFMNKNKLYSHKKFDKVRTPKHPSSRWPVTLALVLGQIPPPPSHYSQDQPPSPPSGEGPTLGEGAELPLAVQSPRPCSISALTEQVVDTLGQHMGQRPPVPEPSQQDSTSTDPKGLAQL

rat P2X2 [2] = target: T2, rat P2X2 (Rattus norvegicus, UniProt P49653, T184I); assay: action potential recording from Drosophila taste neurons expressing the mutant
T2 construct: gene P2rx2; T184I rP2X2::GFP
T2 sequence (P49653 1-472 T184I): T1 sequence (P49653 1-472) with T184I

human P2X2 = target: T3, human P2X2 (Homo sapiens, UniProt Q9UBL9); assay: action potential recording from Drosophila taste neurons, […] ATP; type: cell-based
T3 construct: gene P2RX2; human P2X2 variant A with C-terminal mCherry fusion tag
T3 sequence (Q9UBL9 1-471): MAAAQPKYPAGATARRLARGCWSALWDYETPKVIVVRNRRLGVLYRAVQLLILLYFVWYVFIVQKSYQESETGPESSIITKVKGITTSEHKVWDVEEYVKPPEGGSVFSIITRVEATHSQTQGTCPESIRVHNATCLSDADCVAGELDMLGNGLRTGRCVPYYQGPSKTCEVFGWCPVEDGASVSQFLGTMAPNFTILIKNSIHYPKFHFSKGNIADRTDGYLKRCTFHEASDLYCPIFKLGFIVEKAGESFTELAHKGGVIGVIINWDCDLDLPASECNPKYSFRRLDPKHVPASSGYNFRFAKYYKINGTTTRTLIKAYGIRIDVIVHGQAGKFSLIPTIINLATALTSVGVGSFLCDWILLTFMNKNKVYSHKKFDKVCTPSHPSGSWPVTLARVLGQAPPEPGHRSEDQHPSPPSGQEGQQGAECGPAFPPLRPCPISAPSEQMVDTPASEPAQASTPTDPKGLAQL

rat P2X2 [3] = target: T2, rat P2X2; assay: action potential recording from Drosophila taste neurons, tested at […]; type: cell-based
rat P2X2 [4] = target: T1, rat P2X2; assay: action potential recording from Drosophila taste neurons; confirmed by whole-cell voltage clamp in HEK […] cells at […]
rat P2X2 [5] = target: T1, rat P2X2; assay: action potential recording from Drosophila taste neurons, tested at […]; type: cell-based
rat P2X2 [6] = target: T1, rat P2X2; assay: action potential recording from Drosophila taste neurons, tested at […]; partial agonist; type: cell-based

Nc1ncnc2c1ncn2[C@@H]1O[C@H](COP(=O)(O)OP(=O)(O)OP(=O)(O)O)[C@@H](O)[C@H]1O [ATP]
EC50 (rat P2X2 [1]): 8.7 µM
EC50 (rat P2X2 [2]): 145 µM
action potential recording from Drosophila taste neurons, 10 μM ATP (human P2X2): The human P2X2 ortholog was also tested in Drosophila taste neurons ... and it responded to ATP in a similar fashion

Nc1nc(F)nc2c1ncn2[C@@H]1O[C@H](COP(=O)(O)OP(=O)(O)OP(=O)(O)O)[C@@H](O)[C@H]1O [2F-ATP]
action potential recording from Drosophila taste neurons, tested at 100 μM (rat P2X2 [3]): flies expressing rat P2X2^T184I and found that ATPγS, ATPαS and 2F-ATP elicited responses similar to ATP
EC50 (rat P2X2 [4]): 17.2 µM

Nc1ncnc2c1ncn2[C@@H]1O[C@H](CO[P@](=O)(O)O[P@](=O)(O)O[P@@](=O)(O)S)[C@@H](O)[C@H]1O [ATPγS]
action potential recording from Drosophila taste neurons, tested at 100 μM (rat P2X2 [3]): flies expressing rat P2X2^T184I and found that ATPγS, ATPαS and 2F-ATP elicited responses similar to ATP
action potential recording from Drosophila taste neurons, tested at 100 μM (rat P2X2 [5]): ATPγS and ATPαS have previously been shown to act as agonists ... both were also effective agonists in the Drosophila system

Nc1ncnc2c1ncn2[C@@H]1O[C@H](COP(O)(=S)OP(=O)(O)OP(=O)(O)O)[C@@H](O)[C@H]1O (stereo partly drawn) [ATPαS]
action potential recording from Drosophila taste neurons, tested at 100 μM (rat P2X2 [5]): Several adenosine nucleotides gave responses as large as ATP, including the previously identified agonists ATPγS and ATPαS

Nc1nc(O)nc2c1ncn2[C@@H]1O[C@H](COP(=O)(O)OP(=O)(O)OP(=O)(O)O)[C@@H](O)[C@H]1O [2OH-ATP]
action potential recording from Drosophila taste neurons, tested at 100 μM; part (rat P2X2 [6]): several modifications at this position show full (2F-ATP) or partial (2-hydroxy-ATP) agonist activity
